According to publication PMC5458272:
Where two headings read alike, the source gives them in different places. Blank lines part the entries; values can stand above or below the molecule they belong to.

Experiments:
[1] = target: T1, Aurora-A (Homo sapiens, UniProt O14965); assay: FastStep SPR direct binding of compounds to immobilized Aurora-A; set-up: His-tag (N); host or cells: Escherichia coli BL21(DE3); details: for Kd: SPR, Aurora-A immobilized on COOH5 sensorchip, affinities from Scatchard plots, ± standard error of best-fit, low affinity given as >100 μM
T1 sequence (O14965 1-403): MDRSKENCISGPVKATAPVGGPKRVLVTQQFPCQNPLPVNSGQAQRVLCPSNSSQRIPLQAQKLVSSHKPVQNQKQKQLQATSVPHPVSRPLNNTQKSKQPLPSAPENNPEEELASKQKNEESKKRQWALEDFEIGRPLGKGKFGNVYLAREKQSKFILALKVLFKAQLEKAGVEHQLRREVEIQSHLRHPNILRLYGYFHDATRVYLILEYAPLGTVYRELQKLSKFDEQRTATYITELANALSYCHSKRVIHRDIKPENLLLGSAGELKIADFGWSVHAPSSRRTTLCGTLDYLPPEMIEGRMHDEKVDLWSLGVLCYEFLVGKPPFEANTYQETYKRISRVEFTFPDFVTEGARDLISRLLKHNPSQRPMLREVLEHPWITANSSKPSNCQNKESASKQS
Description: We evaluated the interaction of the selected compounds with Aurora-A immobilized on a COOH5 sensorchip by FastStep Surface Plasmon Resonance (SPR) experiments. Sensorgrams were obtained using Aurora-A as ligand and injecting increasing concentrations of the inhibitors (see Materials and Methods) as analytes in running buffer (Figure 3A).
SPR experiments were carried out using a SensiQ Pioneer apparatus. The sensor chip (COOH5, with a hydrogel-based sensing surface endowed with high binding capacity) was chemically activated by a 35 μl injection of a 1:1 mixture of 200 mM N-ethyl-N’-(3-[…]) carbodiimide and 50 mM N-hydroxysuccinimide at a flow rate of 5 μl/min. Aurora-A was immobilized on the activated sensor chip via amine coupling. The immobilization was carried out in 20 mM sodium acetate at pH 4.5; the remaining ester groups were blocked by injecting 1 M ethanolamine hydrochloride (35 μl).
Compounds for testing were purchased from Ambinter (Paris, France). […] Compounds were injected onto the sensor chip at a constant flow in FastStep injection experiments, in order to rapidly obtain information on the binding of the analyte at different concentrations, with a single dissociation phase. […] At least two independent experiments were performed and averaged for each series of injections. The interaction of immobilized Aurora-A ligand with the inhibitor compounds was detected through mass concentration-dependent changes in the refractive index on the sensor chip surface, expressed as RUs.

[2] = target: T2, Aurora-A/TPX2 complex (Homo sapiens, UniProt O14965); assay: SPR competition between GST-TPX2-1-43 and compounds for Aurora-A binding; details: for Interference with TPX2 binding to Aurora-A (in words): SPR competition
T2 construct: His-tag (N); host or cells: Escherichia coli BL21(DE3)
T2 sequence (O14965 1-403): T1 sequence (O14965 1-403)
Description: (§4) TPX2 in running buffer was injected at different concentrations (ranging from 10 nM to 5 μM), in order to determine the affinity constant of the interaction between Aurora-A and TPX2 and the conditions of the competition experiments (flow rate= 30 μl/min). […] IC50 were calculated on the basis of the RU value at each inhibitor concentration (10 sec after the end of each association sensorgram) since TPX2 binding signal decreases by increasing inhibitor concentration. Both rapid binding and rapid dissociation of inhibitors were subtracted from the sensorgrams.

[3] = test system: U2OS osteosarcoma cell line; assay: Immunofluorescence of mitotic spindle structure in synchronized U2OS cells; assay type: cell-based, human; details: 10 μM, added 6 hours after thymidine release, fixed after further 4 hours, alpha-tubulin staining
Description: (§1) We next wished to examine how compounds displaying inhibitory activity on the Aurora-A/TPX2 complex formation in vitro affected mitosis in human cells. […] C20 and C23 were tested in the U2OS osteosarcoma cell line, in which we previously characterized significant mitotic defects after Alisertib-dependent Aurora-A inhibition. Briefly, U20S cells were arrested at the G1/S transition by thymidine treatment, released in fresh medium to progress through S and G2 phases, then treated with either C20 or C23 (10 μM) 6 hours after thymidine release (Figure 6A). […] Defects were scored in prometa- and metaphases and included completely disorganized spindles (Figure 6A, second panel), or spindles with supernumerary poles (Figure 6A, third and fourth panel), as typically observed under impaired Aurora-A function. To directly assess the extent of Aurora-A activation we measured Aurora-A auto-phosphorylation on Thr 288. […]
(§2) The human U2OS osteosarcoma cell line (ATCC: HTB-96) was grown at 37°C in a 5% CO2 atmosphere in DMEM, supplemented with 10% fetal bovine serum. […] After further 4 hours cells were harvested and analyzed. […]
(§3) Cells grown on poly-lysine-coated coverslips were fixed with cold methanol, 6 min at -20°C. […] Samples were analyzed using a Nikon Eclipse 90i microscope equipped with a Qicam Fast 1394 CCD camera (QImaging). […]

[4] = test system: p-Thr288-Aurora-A; assay: Immunofluorescence of Aurora-A auto-phosphorylation on Thr 288 in U2OS prometaphases; assay type: cell-based, human; details: thymidine arrest/release, monastrol added 2 hours before fixation
Description: as §1, §2, §3

[5] = target: T1, Aurora-A; assay: SPR binding of GST-TPX2-1-43 or GST alone to immobilized Aurora-A; details: GST alone as control analyte
Description: as §4

Kd ([1]; Kd): > 100 µM
Molecule: O=C1Cc2cc(S(=O)(=O)Nc3ccccc3C(=O)O)ccc2N1 [C06]

Kd ([1]; Kd): > 100 µM
Molecule: O=C1Nc2ccccc2/C1=N\NC(=O)c1cccc2ccccc12 [C01]

IC50 ([2]; read-out: IC50): > 100 µM | Kd ([1]; read-out: Kd): 15 ± 6 µM
Molecule: CC1=C(/C(O)=N/c2ccc(F)cc2F)[C@H](c2cccnc2)C2=C(C[C@@H](c3ccccc3)CC2=O)N1 [C22]
Interference with TPX2 binding to Aurora-A (in words) ([2]; 1 μM GST-TPX2-1-43): did not interfere with the formation of the Aurora-A/TPX2 complex

Kd ([1]; Kd): 100 µM
Molecule: O=C1Nc2ccccc2/C1=N\NC(=O)C1COc2ccccc2O1 (centres unmarked) [C04]

IC50 ([2]; read-out: IC50): 40 ± 10 µM | Kd ([1]; read-out: Kd): 42 ± 9 µM
Molecule: O=C1Nc2ccccc2/C1=N/NC(=O)c1ccc2ccccc2n1 [C02]

Kd ([1]; Kd): > 100 µM
Molecule: O=C(COc1ccc2[nH]c3ccccc3c(=O)c2c1)N1c2ccccc2OCC1c1ccccc1 (centres unmarked) [C21]

Interference with TPX2 binding to Aurora-A (in words) ([2]; 1 μM GST-TPX2-1-43): does not compete with TPX2 binding
Molecule: COc1cc(Nc2ncc3c(n2)-c2ccc(Cl)cc2C(c2c(F)cccc2OC)=NC3)ccc1C(=O)O [Alisertib, reference compound]
Interference with TPX2 binding to Aurora-A (in words) ([2]; 500 nM GST-TPX2-1-43, Supplementary Figure 2): does not interfere with TPX2 binding to Aurora-A

Kd ([1]; Kd): > 100 µM
Molecule: CNC(=O)C1CN(C(=O)c2ccc3ccccc3c2)c2ccccc2O1 (centres unmarked) [C10]

IC50 ([2]; read-out: IC50): 30 ± 8 µM | Kd ([1]; read-out: Kd): 12 ± 5 µM
Molecule: COc1ccc(CNC(=O)C(C)Oc2ccc3c(c2)c2ccnc4c5ccccc5c(=O)n3c24)cc1 (centres unmarked) [C23]
Mitotic spindle defects in prometa- and metaphases [3]: aberrant mitotic spindles | p-Thr288-Aurora-A signal compared to controls [4]: highly significant reduction

Kd ([1]; Kd): > 100 µM
Molecule: CC1=NC2=C(C(=O)CC(c3cccs3)C2)C(c2ccccn2)C1C(=O)Nc1ccc(F)cc1 (centres unmarked) [C17]

Molecule: COc1cc(NC(=S)NC(=O)c2cccc(F)c2)ccc1NC(=O)c1cc2ccccc2o1 [C20]
IC50 [2]: 20 ± 10 µM | Mitotic spindle defects in prometa- and metaphases [3]: aberrant mitotic spindles | p-Thr288-Aurora-A signal compared to controls [4]: highly significant reduction | Kd ([1]; Kd): 30 ± 15 µM

Kd ([1]; Kd): > 100 µM
Molecule: COc1ccc(-c2n[nH]c(=S)n2CCC(=O)Nc2ccc3nc(N4CCCC4)sc3c2)cc1 [C24]

Kd ([1]; Kd): > 100 µM
Molecule: CC1=NC2=C(C(=O)CC(c3ccccc3)C2)C(c2ccccn2)C1C(=O)Nc1ccc(F)cc1 (centres unmarked) [C15]

Kd ([1]; read-out: Kd): > 100 µM
Molecule: CC1=NC2=C(C(=O)CC(c3cccs3)C2)C(c2ccccn2)C1C(=O)Nc1cccc(F)c1 (centres unmarked) [C18]

IC50 [2]: > 100 µM | Kd ([1]; Kd): > 100 µM | Aurora-A binding (in words) ([1]; SPR direct binding): no Aurora-A binding properties
Molecule: O=C(Nc1ccc2c(c1)CN(C(=O)c1ccco1)CC2)c1ccc(-c2ccccc2)cc1 [C12]
Interference with TPX2 binding to Aurora-A (in words) ([2]; 1 μM GST-TPX2-1-43): did not influence the Aurora-A/TPX2 complex formation

Kd ([1]; Kd): > 100 µM
Molecule: CC1=C(C(=O)Nc2cccc(F)c2)[C@H](c2ccccn2)C2=C(C[C@H](c3ccccc3)CC2=O)N1 [C16]

Kd ([1]; Kd): 80 ± 30 µM
Molecule: CN1/C(=C\c2cccc3[nH]ccc23)C(=O)c2ccccc2S1(=O)=O [C08]

Kd ([1]; Kd): > 100 µM
Molecule: COc1cc(/C=C2\C(=O)Nc3ccccc32)c(Br)cc1OCc1ccccc1C#N [C19]

Kd ([1]; Kd): > 100 µM
Molecule: Cc1ccc2c(c1)/C(=N\NC(=O)C1COc3ccccc3O1)C(=O)N2 (centres unmarked) [C07]

Kd ([1]; Kd): > 100 µM
Molecule: O=C1Nc2ccc(F)cc2/C1=N\NC(=O)c1ccc2c(c1)OCO2 [C05]

Kd ([1]; Kd): > 100 µM
Molecule: CCn1c(NC(=O)CCn2c(-c3ccc(OC)cc3)n[nH]c2=S)nc2ccccc21 [C13]

Kd ([1]; Kd): > 100 µM
Molecule: O=C(NCCOc1ccc(-c2ccc(F)cc2)nn1)C1c2ccccc2Oc2ccccc21 [C14]

Kd ([1]; Kd): > 100 µM
Molecule: O=C(NCC1Cc2cccc(-c3ccncc3)c2O1)c1ccccc1F (centres unmarked) [C11]

IC50 ([2]; read-out: IC50): 40 ± 10 µM | Kd ([1]; read-out: Kd): 12 ± 6 µM
Molecule: CC(Oc1ccc2c(c1)c1ccnc3c4ccccc4c(=O)n2c13)C(=O)NCc1ccc2c(c1)OCO2 (centres unmarked) [C25]

Molecule: GST: Recombinant GST protein alone, from Sigma (SRP5348), control analyte
Kd [5]: > 5 µM

Kd ([1]; Kd): > 100 µM
Molecule: O=C(Nc1cccc2ncccc12)c1ccc2c(c1)OCCCO2 [C03]

Kd ([1]; Kd): 80 ± 15 µM
Molecule: Cc1oc2cc(OCC(N)=O)ccc2c(=O)c1-c1ccc(Cl)cc1 [C09]
